Source: patent US7622551B2, “Leukocyte stimulating peptides” (POSCO, priority 2004, dated 2009)
“Also recorded” adds a separate entry of the source. Where no end group is shown, it is not given here.

Tests used:
[1] = test system: human neutrophils; test: Superoxide generation (cytochrome c reduction) in human neutrophils; format: cell-based; details: for Superoxide production: 1 μM of peptide, cytochrome c reduction
Procedure: (§1) Peripheral blood leukocyte concentrates were donated by the Ulsan Red Cross Blood Center (Ulsan, Korea). PBMCs were separated on a Histopaque-1077 gradient. After two washings with HBSS without Ca^2+ and Mg^2+, the PBMCs were suspended in 10% FBS containing RPMI and incubated for 60 min at 37° C. to let the monocytes attach to the culture dish. Cells were washed 5 times with warmed RPMI medium to remove lymphocytes, and then the attached monocytes were collected, as described previously (Bae et al. J. Leukoc. Biol. 1999. 65: 241-248). Human neutrophils were isolated according to standard procedures; i.e., dextran sedimentation, hypotonic lysis of erythrocytes, and using a medium lymphocyte separation gradient, as described previously (Seo et al. J. Immunol. 1997. 158: 1895-1901). Isolated human leukocytes were then used promptly.
We determined superoxide anion generation by measuring cytochrome c reduction using a microtiter 96 well plate ELISA reader (Bio-Tekinstruments, EL312e, Winooski, Vt.) as described previously (Bae et al. Blood. 2001. 97: 2854-2862). Human neutrophils (1×10^6 cells/100 μl of RPMI 1640 medium per well of a 96-well plate) were preincubated with 50 μM of cytochrome c at 37° C. for 1 min and then incubated with the indicated peptide concentrations. Superoxide generation was determined from change in light absorption at 550 nm over 5 minutes at 1 min intervals.

[2] = test system: ERK; test: ERK phosphorylation in dHL60 cells (anti-phospho-ERK immunoblot); format: cell-based, human; details: for Phosphorylation level of ERK: dHL60 cells (FIG. 9); for Effect of LY294002 (PI3K) on peptide-induced ERK phosphorylation / Effect of PD98059 (MEK) on peptide-induced ERK phosphorylation / Time of maximal ERK activation after stimulation / Effect of GF109203X (PKC) on peptide-induced ERK phosphorylation: dHL60 cells; for Effect of LY294002 (PI3K) on peptide-induced ERK phosphorylation: LY294002 (50 μM) 15 minutes; for Effect of LY294002 (PI3K) on peptide-induced ERK phosphorylation / Effect of PD98059 (MEK) on peptide-induced ERK phosphorylation / Effect of GF109203X (PKC) on peptide-induced ERK phosphorylation: 1 μM peptide 5 minutes; for Effect of PD98059 (MEK) on peptide-induced ERK phosphorylation: PD98059 (50 μM) 60 minutes; for Time of maximal ERK activation after stimulation: data not shown; for Effect of GF109203X (PKC) on peptide-induced ERK phosphorylation: GF109203X (5 μM) 15 minutes
Procedure: Each sample (30 μg of protein) was subjected to 8% SDS-PAGE, and phosphorylated ERK was quantified by immunoblot analysis with anti-phospho-ERK antibody. The results shown are from a single experiment representative of at least three independent experiments.
Extracellular signal regulated protein kinase (ERK) is a well-known intracellular enzyme that mediates diverse cellular responses (Sugden et al. Cell Signal. 1997. 9: 337-351). […] To compare the intracellular signaling involving these 4 peptides, dHL60 cells were pretreated either with LY294002 (50 μM), GF109203X (5 μM), or PD98059 (50 μM) or left untreated as a control. After being incubated for the indicated periods (15 minutes for LY294002 and GF109203X, 60 minutes for PD98059), the cells were stimulated with 1 μM of each peptide for 5 minutes.

[3] = test system: HUVEC; test: [Ca2+]i rise in HUVEC; format: cell-based; details: 10 μM
Procedure: (§2) The level of [Ca^2+]i was determined using Grynkiewicz's method using fura-2/AM (Grynkiewicz et al. J. Biol. Chem. 1985. 260: 3440-3550). Briefly, prepared cells were incubated with 3 μM of fura-2/AM at 37° C. for 50 min in serum-free RPMI 1640 medium under continuous stirring. 2×10^6 cells were aliquoted for each assay in Ca^2+ free Locke's solution (154 mM NaCl, 5.6 mM KCl, 1.2 mM MgCl2, 5 mM HEPES, pH 7.3, 10 mM glucose, and 0.2 mM EGTA). Fluorescence changes were measured at the dual excitation wavelength of 340 nm and 380 nm, and the calculated fluorescence ratio was translated into [Ca^2+]i.

[4] = test system: 3Y1; test: [Ca2+]i rise in 3Y1 cells; format: cell-based, Rat; details: 3Y1, 10 μM
Procedure: (§3) U937 (human histiocytic lymphoma cells), HL60 (human promyelocytic leukemia cells), Raw 264.7 (mouse macrophage), Jurkat (human acute T cell leukemia), PC12 (rat adrenal pheochromocytoma cells), 3Y1 (Rat embryonic fibroblasts), 3T3L1 (preadipocytes), and NCI-H292 (human mucoepidermoid pulmonary carcinoma cells) were obtained from the American Type Culture Collection (Rockville, Md.) and maintained as recommended. FPR- or FPRL1 expressing RBL-2H3 cells were cultured as described previously (He et al. J. Immunol. 2000. 165: 4598-4605). Cells were maintained at about 1×10^6 cells/ml under standard incubator conditions (humidified atmosphere, 95% air, 5% CO2, at 37° C.). HL60 cells were induced to differentiate into the granulocyte phenotype by adding dimethylsulfoxide (DMSO) (final concentration 1.25%, v/v) for 4 days to the culture medium, as described previously (Itoh et al. Blood. 1998. 92: 1432-1441).
as §2, with “2×10^6 cells were aliquoted for each assay in Ca^2+ free Locke's solution (154 mM NaCl, 5.6 mM KCl, 1.2 mM MgCl2, 5 mM HEPES, pH 7.3, 10 mM glucose, and 0.2 mM EGTA).” left out

[5] = test system: NCI-H292; test: [Ca2+]i rise in NCI-H292 cells; format: cell-based, human; details: NCI-H292, 10 μM
Procedure: as §3
as §2, with “2×10^6 cells were aliquoted for each assay in Ca^2+ free Locke's solution (154 mM NaCl, 5.6 mM KCl, 1.2 mM MgCl2, 5 mM HEPES, pH 7.3, 10 mM glucose, and 0.2 mM EGTA).” left out

[6] = test system: Jurkat cells; test: [Ca2+]i rise in Jurkat cells; format: cell-based, human; details: 10 μM (FIG. 5)
Procedure: as §3
as §2, with “2×10^6 cells were aliquoted for each assay in Ca^2+ free Locke's solution (154 mM NaCl, 5.6 mM KCl, 1.2 mM MgCl2, 5 mM HEPES, pH 7.3, 10 mM glucose, and 0.2 mM EGTA).” left out

[7] = test system: neutrophils; test: [Ca2+]i rise in neutrophils; format: cell-based, human; details: 10 μM (FIG. 5)
Procedure: as §1
as §2, with “2×10^6 cells were aliquoted for each assay in Ca^2+ free Locke's solution (154 mM NaCl, 5.6 mM KCl, 1.2 mM MgCl2, 5 mM HEPES, pH 7.3, 10 mM glucose, and 0.2 mM EGTA).” left out

[8] = test system: Raw 264.7; test: [Ca2+]i rise in Raw 264.7 cells; format: cell-based, mouse; details: Raw 264.7, 10 μM (FIG. 5)
Procedure: as §3
as §2, with “2×10^6 cells were aliquoted for each assay in Ca^2+ free Locke's solution (154 mM NaCl, 5.6 mM KCl, 1.2 mM MgCl2, 5 mM HEPES, pH 7.3, 10 mM glucose, and 0.2 mM EGTA).” left out

[9] = test system: Monocytes; test: [Ca2+]i rise in monocytes; format: cell-based, human; details: 10 μM (FIG. 5)
Procedure: as §1
as §2, with “2×10^6 cells were aliquoted for each assay in Ca^2+ free Locke's solution (154 mM NaCl, 5.6 mM KCl, 1.2 mM MgCl2, 5 mM HEPES, pH 7.3, 10 mM glucose, and 0.2 mM EGTA).” left out

[10] = test system: PC12; test: [Ca2+]i rise in PC12 cells; format: cell-based, rat; details: PC12, 10 μM
Procedure: as §3
as §2, with “2×10^6 cells were aliquoted for each assay in Ca^2+ free Locke's solution (154 mM NaCl, 5.6 mM KCl, 1.2 mM MgCl2, 5 mM HEPES, pH 7.3, 10 mM glucose, and 0.2 mM EGTA).” left out

[11] = test system: U937 cells; test: [Ca2+]i rise in U937 cells; format: cell-based, human; details: 10 μM (FIG. 5)
Procedure: as §3
as §2, with “2×10^6 cells were aliquoted for each assay in Ca^2+ free Locke's solution (154 mM NaCl, 5.6 mM KCl, 1.2 mM MgCl2, 5 mM HEPES, pH 7.3, 10 mM glucose, and 0.2 mM EGTA).” left out

| Substance | Superoxide generation (in words) [1] | Superoxide production [1] [nmole/10^6 cells] | Phosphorylation level of ERK [2] | Effect of LY294002 (PI3K) on peptide-induced ERK phosphorylation [2] | Effect of PD98059 (MEK) on peptide-induced ERK phosphorylation [2] | Time of maximal ERK activation after stimulation [2] [min] | [Ca^2+]i rise [3] | Effect of GF109203X (PKC) on peptide-induced ERK phosphorylation [2] | [Ca^2+]i rise [4] | [Ca^2+]i rise [5] | [Ca^2+]i rise [6] | [Ca^2+]i rise [7] | [Ca^2+]i rise [8] | [Ca^2+]i rise [9] | [Ca^2+]i rise [10] | [Ca^2+]i rise [11] |
| --- | --- | --- | --- | --- | --- | --- | --- | --- | --- | --- | --- | --- | --- | --- | --- | --- |
| MKYYKM-NH2 [Peptide P21] | stimulate superoxide generation in a concentration-dependent manner | 12.7 ± 1.76 | dramatic increase | PI3K and MEK-dependency | PI3K and MEK-dependency | 5 | – | – | – | – | – | – | – | – | – | – |
| MKYYYM-NH2 [Peptide P24] | stimulate superoxide generation in a concentration-dependent manner; also recorded: most potent | 34.2 ± 0.48 | dramatic increase | partially blocked | – | 5 | no response | not by GF109203X | no response | no response | not activated | resulted in a [Ca^2+]i rise | not activated | activated | no response | activated |
| RKYHVM-NH2 [Peptide P14] | stimulate superoxide generation in a concentration-dependent manner | 9.3 ± 1.42 | dramatic increase | blocked | blocked | 5 | – | blocked | – | – | – | – | – | – | – | – |
